Results taken from patent US6803484B2, “Sulfonamide derivatives” (Eli Lilly and Company, priority 2000, dated 2004).

Assay: Determination of plasma exposure of test compounds in rats (LC/MS of plasma after oral dosing)
Assay type: in vivo, rat (male F-344)
Settings: for AUC / Cmax / Tmax: male, F-344, rat, rats, oral administration of a 30 mg/kg dose; for AUC: n = 3, read-out: AUC (area under the curve); for Cmax: n = 3, read-out: Cmax (maximum concentration of test compound); for Tmax: n = 3, read-out: tmax (time at which maximum concentration resulted); for concentration at 0.5 h / concentration at 1 h / concentration at 2 h / concentration at 6 h: rat, male F-344 rats, 30 mg/kg oral by gavage, suspension, n = 3
Procedure: General Procedure for Determination of Plasma Exposure of Test Compounds in Rats
Each compound was administered as a suspension in a vehicle consisting of 5% ethanol, 95% of a mixture of 0.5% each Polysorbate 80/sodium carboxymethylcellulose in water. Three male F-344 rats were dosed orally at 30 mg/kg by gavage and blood collected by orbital venapuncture under isoflurane anesthesia at 0.5, 1, and 2 hours after dosing into sodium heparinized containers. The final 6 hour timepoint was collected by cardiac puncture into sodium heparinized containers. Plasma was collected after brief centrifugation and frozen at −70° C. until assay. Plasma samples were assayed by LC/MS using standards prepared by spiking plasma with the compound of interest.

AUC	Cmax	Tmax	concentration at 0.5 h	concentration at 1 h	concentration at 2 h	concentration at 6 h	SMILES
5596 ± 14 ng·h/mL	1490 ng/mL	30 min	1491 ± 12 ng/mL	1170 ± 134 ng/mL	1040 ± 62 ng/mL	693 ± 136 ng/mL	CC(C)S(=O)(=O)NC[C@H](C)c1ccc(NC(=O)c2cc(F)cc(F)c2)cc1 [Compound B, N-[4-((1R)-1-methyl-2-{[(methylethyl)sulfonyl]amino}ethyl)phenyl](3,5-difluorophenyl)carboxamide]
1440 ± 227 ng·h/mL	473 ng/mL	30 min	473 ± 100 ng/mL	333 ± 53 ng/mL	329 ± 62 ng/mL	67 ± 17 ng/mL	CC(CNS(=O)(=O)C(C)C)c1ccc(NC(=O)c2ccc(F)cc2F)cc1 (centres unmarked) [Compound A, N-[4-(1-methyl-2-{[(methylethyl)sulfonyl]amino}ethyl)phenyl](2,4-difluorophenyl)carboxamide]
